Literature values as cited in patent US7943666B2, “Esters of capsaicin for treating pain” (Trinity Laboratories, Inc., priority 2006, dated 2011).

Key:
[1] = rats, i.v. administration
[2] = 540 mg per day orally for 30 days plus topical as needed; arthritis not responding to NSAIDs

| Compound | Time to distribution to brain, spinal cord, liver and blood [1] [min] | Individuals improved [2] [%] |
| --- | --- | --- |
| COc1cc(CNC(=O)CCCCC=CC(C)C)ccc1O [capsaicin, 8-methyl-N-vanillyl-6-nonenamide] | ≤ 20 | – |
| CCCC/C=C\CCCCCCCC(=O)OCCCCCCCCCCCCCCCC [cetyl myristoleate, cis-9-cetyl myristoleate] | – | 63.5 |
